According to PubChem BioAssay AID743062 (Sanford-Burnham Center for Chemical Genomics, 2013):
“And” between values parts separate entries of the source, which are not always exact repeats. Identical values can stand only once. The source made the active and inactive calls.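 The calls were made as follows: active = IC50 of 25 µM or lower, counted as toxic to worms; inactive = the rest.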

These compounds were tested on C. elegans VP596 worm health composite score, 20-22 h (assay: C. elegans worm health toxicity scoring, SAR follow-up, cytotoxicity control for SKN-1 inhibitor project, whole organism, strain VP596, composite health score, round 3 (AID 743062)).

| SMILES | IC50 |
| --- | --- |
| Clc1ccccc1-c1csc(-c2ccncc2)n1 | 33.2 µM (inactive) |
| Cc1sc(-c2ccncc2)nc1-c1ccccc1 | 48.3 µM (inactive) |
| Clc1cccc(-c2csc(-c3ccncc3)n2)c1 | 16 µM |
| c1ccc(-c2csc(-c3ccccn3)n2)cc1 | > 64 µM (inactive) |
| N#Cc1ccc(-c2csc(-c3ccncc3)n2)cc1 | 37.2 µM (inactive) |
| CCCc1cc(-c2nc(-c3ccc(C)cc3)cs2)ccn1 | > 64 µM (inactive) |
| COc1ccc(-c2csc(C3CCNCC3)n2)cc1 | > 64 µM (inactive) |
| Clc1ccc(-c2csc(-c3ccccn3)n2)cc1 | 23.1 µM and > 64 µM (inactive) |
| Cc1sc(C2CCNCC2)nc1-c1ccccc1 | > 64 µM (inactive) |
| COC(=O)c1ccc(-c2csc(-c3ccncc3)n2)cc1 | > 64 µM (inactive) |
| COc1ccccc1-c1csc(-c2ccncc2)n1 | 48.4 µM (inactive) |
| COc1cccc(-c2csc(-c3ccncc3)n2)c1 | 55.7 µM (inactive) |
| Cc1sc(-c2ccncc2)nc1-c1ccc(Cl)cc1 | > 64 µM (inactive) |
| Clc1ccc(-c2csc(-c3ccncc3)n2)cc1Cl | 10.5 µM and 33.7 µM (inactive) |
| Cc1cccc(-c2csc(-c3ccncc3)n2)c1 | 50.8 µM (inactive) |
| FC(F)(F)c1ccc(-c2csc(-c3ccncc3)n2)cc1 | 20.3 µM |
| Fc1ccc(-c2csc(-c3ccncc3)n2)cc1 | 53.6 µM (inactive) |
| COc1ccc(-c2csc(-c3ccncc3)n2)cc1 | > 64 µM (inactive) |
| Clc1ccc(-c2csc(-c3ccccc3)n2)cc1 | > 64 µM (inactive) |
| c1ccc(-c2csc(-c3ccncc3)n2)cc1 | 42.4 µM (inactive) |
| Clc1ccc(-c2csc(C3CCNCC3)n2)cc1 | > 64 µM (inactive) |
| Cc1ccc(-c2csc(-c3ccccn3)n2)cc1 | > 64 µM (inactive) |
| Cc1sc(-c2ccncc2)nc1-c1ccc(F)cc1 | > 64 µM (inactive) |
| COc1ccc(-c2nc(-c3ccncc3)sc2C)cc1 | > 64 µM (inactive) |

| SMILES | IC50 |
| --- | --- |
| c1cc(-c2nc(-c3nccs3)cs2)ccn1 | > 64 µM (inactive) |
| c1ccc(-c2csc(-c3cccnc3)n2)cc1 | 53.9 µM (inactive) |
| Cc1ccccc1-c1csc(-c2ccncc2)n1 | 55.7 µM (inactive) |
| Fc1ccc(-c2csc(-c3ccccn3)n2)cc1 | 42 µM (inactive) |
| CC(C)(C)c1csc(-c2ccncc2)n1 | > 64 µM (inactive) |
| COc1ccc(-c2csc(-c3cccnc3)n2)cc1 | 36.4 µM (inactive) |
| Clc1ccc(-c2csc(-c3ccncc3)n2)c(Cl)c1 | > 64 µM (inactive) |
| c1cc(-c2nc(C3CC3)cs2)ccn1 | > 64 µM (inactive) |
| c1ccc(-c2nc(-c3cccnc3)cs2)cc1 | > 64 µM (inactive) |
| Cc1ccc(-c2csc(-c3ccccc3)n2)cc1 | > 64 µM (inactive) |
| Cc1csc(-c2ccncc2)n1 | > 64 µM (inactive) |
| Cc1ccc(-c2csc(-c3cccnc3)n2)cc1 | > 64 µM (inactive) |
| COc1ccc(-c2csc(-c3ccccn3)n2)cc1 | 21.4 µM |
| Cc1ccc(-c2nc(-c3ccncc3)sc2C)cc1 | > 64 µM (inactive) |
| COc1ccc(-c2csc(-c3ccccc3)n2)cc1 | > 64 µM (inactive) |
| Fc1ccc(-c2csc(-c3ccccc3)n2)cc1 | 28.4 µM (inactive) |
| Cc1ccc(-c2csc(-c3ccncc3)n2)cc1 | 54.6 µM (inactive) |
| CCCc1cc(-c2nc(-c3ccc(NS(C)(=O)=O)cc3)cs2)ccn1 | > 64 µM (inactive) |
| Fc1ccc(-c2csc(-c3cccnc3)n2)cc1 | 35.6 µM (inactive) |
| Clc1ccc(-c2csc(-c3cccnc3)n2)cc1 | 11.1 µM and 29.4 µM (inactive) |
| c1ccc(-c2csc(C3CCNCC3)n2)cc1 | > 64 µM (inactive) |
| Fc1ccc(-c2csc(C3CCNCC3)n2)cc1 | > 64 µM (inactive) |
| Cc1ccc(-c2csc(C3CCNCC3)n2)cc1 | > 64 µM (inactive) |
| Clc1ccc(-c2csc(-c3ccncc3)n2)cc1 | 32.7 µM (inactive) and 11.5 µM |
